A word on the IC50: it is the concentration at which inhibition is half-maximal.

For this assay, the target named is T1, N-terminally GST-tagged human full length recombinant Mps-1 kinase (Homo sapiens, UniProt P33981).
T1 construct: N-terminally GST-tagged human full length recombinant Mps-1 kinase; purchased Invitrogen, Karslruhe, Germany PV4071
T1 sequence (P33981 1-857): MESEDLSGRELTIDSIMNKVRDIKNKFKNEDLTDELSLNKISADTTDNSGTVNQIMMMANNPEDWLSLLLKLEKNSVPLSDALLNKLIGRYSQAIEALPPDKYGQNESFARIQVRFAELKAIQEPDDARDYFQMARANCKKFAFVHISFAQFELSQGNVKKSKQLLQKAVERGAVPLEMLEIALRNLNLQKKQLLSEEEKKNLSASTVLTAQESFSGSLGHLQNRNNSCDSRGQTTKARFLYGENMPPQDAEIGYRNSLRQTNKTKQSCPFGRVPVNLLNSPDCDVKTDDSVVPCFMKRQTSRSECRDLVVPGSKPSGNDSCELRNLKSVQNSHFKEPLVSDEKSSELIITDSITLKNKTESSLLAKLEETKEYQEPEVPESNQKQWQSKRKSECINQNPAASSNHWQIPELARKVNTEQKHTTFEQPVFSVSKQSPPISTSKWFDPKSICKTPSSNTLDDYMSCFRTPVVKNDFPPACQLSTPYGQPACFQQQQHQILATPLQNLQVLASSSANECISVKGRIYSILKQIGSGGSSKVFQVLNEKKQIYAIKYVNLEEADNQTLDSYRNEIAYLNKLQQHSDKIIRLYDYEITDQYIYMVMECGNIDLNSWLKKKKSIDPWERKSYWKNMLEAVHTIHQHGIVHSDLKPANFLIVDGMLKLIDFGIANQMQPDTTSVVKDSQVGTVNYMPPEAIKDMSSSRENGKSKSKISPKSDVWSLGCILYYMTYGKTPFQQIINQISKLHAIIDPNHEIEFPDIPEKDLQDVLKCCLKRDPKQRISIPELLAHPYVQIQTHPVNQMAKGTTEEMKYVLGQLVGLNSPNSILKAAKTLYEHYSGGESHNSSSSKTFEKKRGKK
Kind of assay: Mps-1 kinase assay (TR-FRET). Format: biochemical. The conditions noted are these: Mps1 IC50 [nM], 10 μM ATP, 1 μM peptide substrate, 60 min at 22° C. Put shortly:
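Kinase activity of N-terminally GST-tagged full-length recombinant Mps-1, used at about 1 nM final and set within the linear range, was measured on a biotinylated peptide substrate. Phosphopeptide was detected by TR-FRET from Eu-anti-phospho(Ser/Thr) antibody to streptavidin-XLent after 1 h at 22° C.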
(In TR-FRET formats the signal depends on donor and acceptor labels being close together.)
`Cc1cc(-c2cnc3c(NCCC(F)(F)F)cc(Oc4cccc5c4NCCC5)nn23)ccc1C(=O)NC1CC1` [Example 466, N-cyclopropyl-2-methyl-4-{6-(1,2,3,4-tetrahydro-quinolin-8-yloxy)-8-[(3,3,3-trifluoropropyl)amino]imidazo[1,2-b]pyridazin-3-yl} benzamide]: the IC50 was 4.8 nM.

On to `Cc1cc(-c2cnc3c(NCCC(F)(F)F)cc(Oc4cccc(F)c4)nn23)ccc1C(=O)NCCC(F)(F)F` [Example 554, 4-{6-(3-fluorophenoxy)-8-[(3,3,3-trifluoropropyl)amino]imidazo[1,2-b]pyridazin-3-yl}-2-methyl-N-(3,3,3-trifluoropropyl)benzamide], for which the IC50 came to 1.6 nM. As for `Cc1cc(-c2cnc3c(NCC4CCS(=O)(=O)CC4)cc(Oc4cccc(F)c4)nn23)ccc1C(=O)NC1CC1` [Example 298A, N-cyclopropyl-4-[8-{[(1,1-dioxidotetrahydro-2H-thiopyran-4-yl)methyl]amino}-6-(3-fluorophenoxy)imidazo[1,2-b]pyridazin-3-yl]-2-methylbenzamide], the figure is under 0.1 nM; as for `Cc1cc(-c2cnc3c(NCC(C)(C)O)cc(Oc4cc(F)cc(F)c4)nn23)ccc1C(=O)NC1CC1` [Example 262, N-cyclopropyl-4-{6-(3,5-difluorophenoxy)-8-[(2-hydroxy-2-methylpropyl)amino]imidazo[1,2-b]pyridazin-3-yl}-2-methylbenzamide], 0.2 nM; as for `Cc1cc(-c2cnc3c(NCCC(F)(F)F)cc(Sc4cccc(F)c4C)nn23)ccc1C(=O)NC1CC1` [Example 387, N-cyclopropyl-4-{6-[(3-fluoro-2-methylphenyl)sulfanyl]-8-[(3,3,3-trifluoropropyl)amino]imidazo[1,2-b]pyridazin-3-yl}-2-methylbenzamide], 0.3 nM. Turning to `Cc1cc(-c2cnc3c(NCCC(F)(F)F)cc(Oc4ccc(F)c(F)c4)nn23)ccc1C(=O)NC1CC1` [Example 260, N-cyclopropyl-4-{6-(3,4-difluorophenoxy)-8-[(3,3,3-trifluoropropyl)amino]imidazo[1,2-b]pyridazin-3-yl}-2-methylbenzamide], the IC50 was found to be 0.2 nM.

As to `CCNC(=O)c1ccc(-c2cnc3c(NCC4CCOCC4)cc(Oc4ccc(OC)c(F)c4)nn23)cc1C` [Example 600, N-ethyl-4-{6-(3-fluoro-4-methoxyphenoxy)-8-[(tetrahydro-2H-pyran-4-ylmethyl)a-mino]imidazo[1,2-b]pyridazin-3-yl}-2-methylbenzamide], the IC50 is under 1 nM. On to `Cc1cc(-c2cnc3c(NCC(C)(C)N(C)C)cc(Oc4cccc(F)c4)nn23)ccc1C(=O)NC1CC1` [Example 497, N-cyclopropyl-4-[8-{[2-(dimethyl-amino)-2-methylpropyl]amino}-6-(3-fluorophenoxy)imidazo [1,2-b]pyridazin-3-yl]-2-methyl-benzamide], for which the IC50 came to 0.2 nM.

As to `Cc1cc(-c2cnc3c(NCCC(F)(F)F)cc(-c4ccnn4C)nn23)ccc1C(=O)NC1CC1` [Example 10, N-cyclopropyl-2-methyl-4-{6-(1-methyl-1H-pyrazol-5-yl)-8-[(3,3,3-trifluoropropyl)amino]imidazo[1,2-b]pyridazin-3-yl}benzamide], the IC50 is under 1 nM. For the compound `COc1ccc(Nc2cc(NCCC(F)(F)F)c3ncc(-c4ccc(C(=O)NC5CC5)c(C)c4)n3n2)cc1F` [Example 424, N-cyclopropyl-4-{6-[(3-fluoro-4-methoxyphenyl)amino]-8-[(3,3,3-trifluoropropyl)amino]imidazo[1,2-b]pyridazin-3-yl}-2-methylbenzamide], the IC50 was determined as 0.2 nM. As for `Cc1cc(-c2cnc3c(NCC(C)(C)O)cc(Nc4cccc(F)c4F)nn23)ccc1C(=O)NC1CC1` [Example 352, N-cyclopropyl-4-{6-[(2,3-difluorophenyl)amino]-8-[(2-hydroxy-2-methylpropyl)amino]imidazo[1,2-b]pyridazin-3-yl}-2-methylbenzamide], the IC50 was 0.2 nM. For `FC(F)(F)CCNc1cc(-c2ccncc2)nn2c(-c3ccc(-c4cnc(C5CC5)[nH]4)cc3)cnc12` [Example 26, 3-[4-(2-Cyclopropyl-1H-imidazol-5-yl)phenyl]-6-(pyridin-4-yl)-N-(3,3,3-trifluoropropyl)imidazo[1,2-b]pyridazin-8-amine], the IC50 turned out to be 4.1 nM. As for `Cc1ccc(Oc2cc(NCCC(F)(F)F)c3ncc(-c4ccc(C(=O)NC5CC5)c(C)c4)n3n2)cc1` [Example 479, N-cyclopropyl-2-methyl-4-{6-(4-methylphenoxy)-8-[(3,3,3-trifluoro-propyl)amino]imidazo [1,2-b]pyridazin-3-yl} benzamide], the IC50 was determined as 0.2 nM. As for `Cc1cc(-c2cnc3c(NCCC(F)(F)F)cc(Nc4ccccc4O)nn23)ccc1C(=O)NC1CC1` [Example 399, N-cyclopropyl-4-{6-[(2-hydroxyphenyl)amino]-8-[(3,3,3-trifluoropropyl)amino]imidazo[1,2-b]pyridazin-3-yl}-2-methylbenzamide], the figure is 0.1 nM.

In the case of `CNC(=O)c1ccc(-c2cnc3c(NCC4CCOCC4)cc(Oc4ccc(OC)cc4F)nn23)cc1C` [Example 571, 4-{6-(2-fluoro-4-methoxyphenoxy)-8-[(tetrahydro-2H-pyran-4-ylmethyl)amino]imidazo[1,2-b]pyridazin-3-yl}-N,2-dimethylbenzamide], the IC50 was under 1 nM. Turning to `Cc1cc(-c2cnc3c(NCCC(F)(F)F)cc(Nc4cccc(O)c4C)nn23)ccc1C(=O)NC1CC1` [Example 454, N-cyclopropyl-4-{6-[(3-hydroxy-2-methylphenyl)amino]-8-[(3,3,3-trifluoropropyl)amino]imidazo[1,2-b]pyridazin-3-yl}-2-methylbenzamide], the IC50 is 0.1 nM. As for `Cc1cccc(Nc2cc(NCCC(F)(F)F)c3ncc(-c4ccc(C(=O)NC5CC5)c(C)c4)n3n2)c1` [Example 423, N-cyclopropyl-2-methyl-4-{6-[(3-methylphenyl)amino]-8-[(3,3,3-trifluoropropyl)amino]imidazo[1,2-b]pyridazin-3-yl}benzamide], the figure is 0.3 nM; as for `Cc1cc(-c2cnc3c(NCCCN4CCCC4)cc(Oc4cccc(F)c4)nn23)ccc1C(=O)NC1CC1` [Example 507, N-cyclopropyl-4-[6-(3-fluoro-phenoxy)-8-{[3-(pyrrolidin-1-yl)propyl]amino}imidazo[1,2-b]pyridazin-3-yl]-2-methyl-benzamide], 0.2 nM; as for `Cc1ccc(F)cc1Nc1cc(NCCCC(F)(F)F)c2ncc(-c3ccc(C(=O)NC4CC4)c(C)c3)n2n1` [Example 448, N-cyclopropyl-4-{6-[(5-fluoro-2-methylphenyl)amino]-8-[(4,4,4-trifluorobutyl)amino]imidazo[1,2-b]pyridazin-3-yl}-2-methylbenzamide], 0.6 nM. As for `COc1cc(C(=O)NC2CC2)ccc1-c1cnc2c(NCCC(F)(F)F)cc(-c3ccccc3CO)nn12` [Example 54, N-cyclopropyl-4-{6-[2-(hydroxymethyl)phenyl]-8-[(3,3,3-trifluoropropyl)amino]imidazo[1,2-b]pyridazin-3-yl}-3-methoxybenzamide], the IC50 worked out at 7.6 nM.

Turning to `CCNC(=O)c1ccc(-c2cnc3c(NCC(F)F)cc(Oc4ccc(OC)cc4F)nn23)cc1C` [Example 605, 4-{8-[(2,2-difluoroethyl)amino]-6-(2-fluoro-4-methoxyphen-oxy)imidazo[1,2-b]pyridazin-3-yl}-N-ethyl-2-methylbenzamide], the 50% inhibitory concentration (IC50) is 1.2 nM.

Regarding `Cc1cc(-c2cnc3c(NCCC(F)(F)F)cc(Sc4cccc(F)c4)nn23)ccc1C(=O)NC1CC1` [Example 209, N-cyclopropyl-4-{6-[(3-fluorophenyl)sulfanyl]-8-[(3,3,3-trifluoropropyl)amino]imidazo[1,2-b]pyridazin-3-yl}-2-methylbenzamide], the IC50 is 0.6 nM. Turning to `Cc1cc(-c2cnc3c(NCC(C)(C)O)cc(Nc4cccc(O)c4)nn23)ccc1C(=O)NC1CC1` [Example 446, N-cyclopropyl-4-{8-[(2-hydroxy-2-methylpropyl)amino]-6-[(3-hydroxyphenyl)amino]imidazo[1,2-b]pyridazin-3-yl}-2-methylbenzamide], the IC50 was 0.4 nM.

Consider `CC(C)(O)CNc1cc(Oc2ccccc2)nn2c(-c3ccc(C(=S)NC4CC4)cc3)cnc12` [Example 243, N-cyclopropyl-4-{8-[(2-hydroxy-2-methylpropyl)amino]-6-phenoxyimidazo[1,2-b]pyridazin-3-yl}benzenecarbothioamide], for which the concentration for half-maximal inhibition (IC50) amounted to 0.9 nM. On to `C=Cc1cc(NCCC(F)(F)F)c2ncc(-c3ccc(-c4cnc(C5CC5)[nH]4)cc3)n2n1` [Example 22, 3-[4-(2-Cyclopropyl-1H-imidazol-5-yl)phenyl]-6-ethenyl-N-(3,3,3-trifluoropropyl)imidazo[1,2-b]pyridazin-8-amine], for which the IC50 turned out to be 35.7 nM.

(Values after patent US9255100B2 (BAYER INTELLECTUAL PROPERTY GMBH, priority 2010, dated 2016).)
